From patent US11254680B2, “Cyclic iminopyrimidine derivatives as kinase inhibitors” (ABM Therapeutics Corporation, priority 2017, dated 2022)

Tests used:
P-glycoprotein (MDR1) = assay: MDCK-MDR1 Permeability Assay; assay type: in vitro ADME, canine; conditions: dog; for efflux ratio at 120 min: MDCK-MDR1, Papp(B-A)/Papp(A-B); for Papp A→B at 120 min: MDCK-MDR1, apical to basolateral; for Papp A→B at 120 min / Papp B→A at 120 min: 1-30 μM; for Papp B→A at 120 min: MDCK-MDR1, basolateral to apical
Protocol: MDCK-MDR1 cells originate from transfection of Madin Darby canine kidney (MDCK) cells with the MDR1 gene, the gene encoding for the efflux protein, P-glycoprotein. This cell line is ideal for identifying substrates of P-gp, with or without an inhibitor. The cells are seeded on a Multiscreen™ plate to form a confluent monolayer over 4 days prior to the experiment. On day 4, the test compound (1-30 μM concentration) is added to the apical side of the membrane and the transport of the compound across the monolayer is monitored over a 120 minutes time period. To study drug efflux, it is also necessary to investigate transport of the compound from the basolateral compartment to the apical compartment and calculate an efflux ratio.
(§1) The permeability coefficient (Papp) is calculated from the following equation: Papp=[(dQ/dt)/C0×A] where dQ/dt is the rate of permeation of the drug across the cells, C0 is the donor compartment concentration at time zero and A is the area of the cell monolayer.
An efflux ratio is calculated from the mean apical to basolateral (A-B) Papp data and basolateral to apical (B-A) Papp data. Efflux Ratio=Papp(B−A)/Papp(A−B)

HT-29 colon cancer cells = assay: Antiproliferation assay in HT-29 cells by CellTiter Glo; assay type: cell-based; conditions: Homo sapiens, 72 hours or 144 hours
[1] = Caco-2 Permeability Assay; assay type: in vitro ADME; conditions: human; for efflux ratio at 120 min: Caco-2; for Papp A→B at 120 min: Caco-2, apical to basolateral; for Papp A→B at 120 min / Papp B→A at 120 min: 1-30 μM; for Papp B→A at 120 min: Caco-2, basolateral to apical
Protocol: Caco-2 cells are widely used as an in vitro assay to measure the permeability of a drug compound. The Caco-2 cell line is derived from a human colorectal carcinoma, and when cultured, the cells spontaneously differentiate into monolayers of polarized enterocytes. Caco-2 cells express P-glycoprotein and breast cancer resistance protein, two of the most relevant cell membrane active transporters that affect drug compound's permeability into cells and blood brain barrier.
The cells are seeded on Millipore Millicell plates and form a confluent monolayer over 20 days prior to the experiment. On day 20, the test compound (1-30 μM concentration) is added to the apical side of the membrane and the transport of the compound across the monolayer is monitored over a 120 minutes time period. To study drug efflux, it is also necessary to investigate transport of the compound from the basolateral compartment to the apical compartment.
as §1, with “monolayer. C0 is obtained from analysis of the dosing solution at the start experiment.” for “monolayer.”

[2] = Mouse Pharmacokinetics Study; assay type: in vivo; conditions: CD-1 mice; for F / AUC / Cmax / Tmax: PO 25 mg/kg; for Vd / half-life / clearance / AUC / Cmax / Tmax: mouse, plasma; for Vd / half-life / clearance: IV 2.5 mg/kg; for half-life: 20% Hydroxypropyl-beta-cyclodextrin; for clearance: read-out: Clp
From the text: The pharmacokinetic properties of selected compounds were studied CD-1 mice via intravenous and oral administration by using a standard protocol. The test articles were formulated in 20% Hydroxypropyl-beta-cyclodextrin, either as a clear solution or fine suspension.

A375 melanoma cells = assay: Antiproliferation assay in A375 cell line by CellTiter Glo; assay type: cell-based; conditions: Homo sapiens, A-375, 72 hours or 144 hours
Protocol: In vitro anti-proliferation study of test compounds in A375 cell line by CellTiter Glo. The cells were routinely maintained as a monolayer culture in corresponding culture medium, at 37° C. with 5% CO2 in air.
Harvest the exponential growth cells by trypsin-EDTA digestion. Re-suspend the cell pellet in fresh culture medium, and adjust the concentration to needed (the cell density per well was listed in following form). The cell viability is over 98% by Trypan blue staining. Inoculate cells into 96 wells plates according to the plate map (90 μL/well). Incubate the plates at 37° C. and 5% CO2 overnight. The next day, prepare the 10×compound containing medium according to the plate map. Transfer 10 μL of 10×compound containing medium into each well of the assay plates (the final DMSO concentration is 0.5%). Gently mix the medium and incubate at 37° C. and 5% CO2 for another 72 hours or 144 hours.
Prepare the reagent according to the manufacture's instruction. Add 50 μL CellTiter-Glo Reagent in each well. Mix contents for 2 minutes on an orbital shaker to induce cell lysis. Allow the plate to incubate at room temperature for 10 minutes to stabilize luminescent signal. Transfer 100 μL of reaction contents of each well from the clear plates into white walled/white opaque 96-well plates. Record the luminescence on Envision.
Using the luminescence measurements [time zero (T0), control growth (C), and test growth in the presence of drug at the six concentration levels (Ti)], the percentage growth is calculated at each of the drug concentrations levels.
Percentage growth inhibition (GI) is calculated as: GI (%)═[(Ti-T0)/(C-T0)]×100 for concentrations for which Ti>=T0, and GI (%)═[(Ti-T0)/T0]×100 for concentrations for which Ti<T0. Data were analyzed using the XLFit (Excel) tool, fitting to a 4-parameter equation to generate concentration response curves. Concentration of compound that inhibits 50% of control cell growth (GI50) was back-interpolated when y=50% of net growth of DMSO treated control wells using nonlinear regression with the equation: f(x) 205 [fit=(A+((B−A)/(1+((C/x)^))))], where A is the minimum response (Ymin), B is the maximum response (Ymax), C is the inflection point of the curve (Re GI50) and D is the Hill coefficient. Growth inhibition of 50% (GI50) was calculated at the 50% Growth inhibition on the curve. Index values were the sum of Inhibition rate (IR) at each tested compound concentration.

Compound | efflux ratio at 120 min (P-glycoprotein (MDR1)) | Papp A→B at 120 min (P-glycoprotein (MDR1)) [nm/s] | Papp B→A at 120 min (P-glycoprotein (MDR1)) [nm/s] | GI50 (HT-29 colon cancer cells) [µM] | efflux ratio at 120 min [1] | Papp A→B at 120 min [1] [nm/s] | Papp B→A at 120 min [1] [nm/s] | F [2] [%] | Vd [2] [L/kg] | half-life [2] [min] | clearance [2] [L/h/kg] | AUC [2] [µg·h/mL] | Cmax [2] [µg/mL] | Tmax [2] [min] | GI50 (A375 melanoma cells) [µM]
CCCS(=O)(=O)Nc1cccc(Oc2ccc3c(c2)C2=NCCCN2C=N3)c1Cl [Compound 21, N-(2-Chloro-3-((3,4-dihydro-2H-pyrimido[1,2-c]quinazolin-10-yl)oxy)phenyl)propane-1-sulfonamide] | 1.68 | 241 | 405 | < 0.1 | 0.36 | 529 | 192 | 113 ± 11.1 | 0.948 ± 0.166 | 72.6 ± 6 | 0.542 ± 0.0786 | 53.8 ± 5.21 | 11.7 ± 2.38 | 30 | < 0.1
CCCS(=O)(=O)Nc1cccc(Oc2ccc3c(c2)C2=NCCN2C=N3)c1Cl [Compound 6, N-(2-Chloro-3-((2,3-dihydroimidazo[1,2-c]quinazolin-9-yl)oxy)phenyl)propane-1-sulfonamide] | 1.42 | 263 | 372 | 0.1 to 1 | 0.31 | 435 | 135 | 58.9 ± 21.5 | 1.22 ± 0.16 | 28 ± 0.72 | 1.82 ± 0.278 | 8.22 ± 3 | 4.22 ± 1.35 | 15 | < 0.1
